Measured values as given in PubChem BioAssay (NCI).
Where “and” joins values, the source holds several entries; their conditions need not be identical. Equal entries are not always repeated.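 Results reflect a 48-hour exposure of cells in 96-well plates to compound at five concentrations. Abbreviation: GI50, concentration required for 50% inhibition of growth. TGI marks complete inhibition of growth.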

How the values were obtained:
Experiment in all cases: DTP human tumour cell line panel, 48 h
COLO 205 colon = tested on: COLO 205 colon
DU-145 prostate = tested on: DU-145 prostate
HCT-15 colon = tested on: HCT-15 colon
HOP-92 NSCLC = tested on: HOP-92 NSCLC
LOX IMVI melanoma = tested on: LOX IMVI melanoma
MDA-MB-231 breast = tested on: MDA-MB-231 breast
NCI-H460 lung = tested on: NCI-H460 lung
NCI-H522 lung = tested on: NCI-H522 lung
SK-MEL-5 melanoma = tested on: SK-MEL-5 melanoma
UACC-257 melanoma = tested on: UACC-257 melanoma

SMILES | GI50 (COLO 205 colon) [µM] | TGI (COLO 205 colon) | GI50 (DU-145 prostate) [µM] | TGI (DU-145 prostate) [µM] | GI50 (HCT-15 colon) [µM] | TGI (HCT-15 colon) | GI50 (HOP-92 NSCLC) [µM] | TGI (HOP-92 NSCLC) | GI50 (LOX IMVI melanoma) [µM] | TGI (LOX IMVI melanoma) | GI50 (MDA-MB-231 breast) [µM] | TGI (MDA-MB-231 breast) [µM] | GI50 (NCI-H460 lung) [µM] | TGI (NCI-H460 lung) | GI50 (NCI-H522 lung) [µM] | TGI (NCI-H522 lung) | GI50 (SK-MEL-5 melanoma) [µM] | TGI (SK-MEL-5 melanoma) | GI50 (UACC-257 melanoma) [µM] | TGI (UACC-257 melanoma)
O=c1[nH]c2cc(Cl)c(Cl)cc2n2cc3ccccc3c12 | 29.6 | > 100 µM | 18 | 31.8 | 16.6 | 30.2 µM | 18.4 | 34.7 µM | 17.3 | 31 µM | 17.2 | 32.7 | 18.8 | 32.8 µM | 10.2 | 31 µM | 19.9 | 41.7 µM | 20.3 | 48.6 µM
CN(C)C/C=C/C(=O)Nc1ccc(C(=O)N2CCC[C@@H](Nc3ncc(Cl)c(-c4c[nH]c5ccccc45)n3)C2)cc1 | 0.0338 | 0.122 µM | 0.215 | 11.1 | 8.65 | 23.2 µM | 0.244 | 1.54 µM | 0.0558 | 1.28 µM | 0.138 | 6.71 | 0.498 | 5.62 µM | 0.0344 | 0.228 µM | 0.231 | 0.618 µM | 0.234 | 1.32 µM
CCC(=O)c1cc([N+](=O)[O-])c(Br)s1 | 1.99 | 3.56 µM | 4.31 | 13.3 | 2.47 | 8.21 µM | 1.96 | 4.8 µM | 1.88 | 3.46 µM | 6.79 | 21.3 | 6.17 | 20.9 µM | 0.904 | 2.2 µM | 16.5 | 30.4 µM | 1.21 | 2.52 µM
COc1ccc(C(=O)C[C@]2(O)C(=O)Nc3c(Cl)ccc(Cl)c32)cc1 | 0.488 | 9.78 µM | 1.87 | > 55.7 | 0.35 | > 100 µM | 1.41 | > 92.3 µM | 0.581 | > 100 µM | 0.801 | > 100 | 0.389 | > 53.5 µM | 0.317 | – | 0.573 | 22.3 µM | 50.3 | > 100 µM
CN(C)C(=O)SC1=C(c2c(Cl)cccc2Cl)C(=O)c2ccccc21 | 2.22 | 4.42 µM | 2.4 | 5.61 | 2.2 | 6.28 µM | 1.96 | 8.31 µM | 1.74 | 3.75 µM | 5.6 | 13.7 | 17.4 | 37.2 µM | 1.74 | 4.05 µM | 7.16 | 19.2 µM | 5.16 | 9.81 µM
CN(C)CCCC1(c2ccc(F)cc2)OCc2cc(-c3cncc4ccccc34)ccc21 (stereo not given) | 2.07 | 4.72 µM | 3.4 | 11.8 | 3.32 | 12.6 µM | 1.58 | 8.81 µM | 1.72 | 3.27 µM | 2.1 | 6.57 | 1.73 | 3.49 µM | 1.88 | 4.08 µM | 1.77 | 3.2 µM | 2.02 | 4 µM
COc1ccc(-c2cc(/C=C/C(=O)c3cc(OC)c(OC)c(OC)c3)[nH]n2)cc1OC | 1.75 | 3.57 µM | 1.83 | 4.12 | 1.19 | 3.85 µM | 1.61 | 5.48 µM | 1.46 | 2.88 µM | 2.02 | 13.5 | 1.04 | 3.6 µM | 1.33 | 2.68 µM | 1.58 | 2.93 µM | 1.79 | 3.8 µM
O=C(CCN1CCCC1)Nc1ccc2c(Nc3ccccc3)c3ccccc3nc2c1 | 0.787 | 2.49 µM | 0.172 | 1.64 | 0.367 | 2.36 µM | 0.432 | 2.26 µM | 0.398 | 1.93 µM | 1.41 | 3.45 | 0.0489 | 1.2 µM | 1.03 | 2.88 µM | 1.38 | 2.71 µM | 1.75 | 3.83 µM
Cc1ccc(-n2c3c(c4c(CN5CCOCC5)c(O)ccc42)CCc2ccccc2C3=O)cc1 | > 100 | > 100 µM | > 100 | > 100 | > 100 | > 100 µM | 68.2 | > 100 µM | > 100 | > 100 µM | 37.8 | > 100 | 65.8 | > 100 µM | 34.5 | > 100 µM | 76 | > 100 µM | > 100 | > 100 µM
Cc1cc(NC(=O)NC(=O)c2ccccc2N(C)C)ccc1Oc1ncc(Br)cn1 | 0.266 | – | – | > 63.1 | – | > 68.1 µM | 5.5 | 46.2 µM | 0.582 | > 63.1 µM | – | 52.5 | 0.343 | 55.5 µM | 0.164 | 0.408 µM and 0.587 µM | – | 4.11 µM | – | > 100 µM
Cc1ccc(/C=C2\CNC/C(=C\c3ccc(C)cc3)C2=O)cc1 | 1.45 | 2.78 µM and 7.3 µM | – | 16 | 0.407 | 1.45 µM and 3.62 µM | 2.21 | 5.49 µM and 14.5 µM | 0.403 | 1.49 µM and 2.11 µM | – | > 24.6 | 1.21 | 2.62 µM and 9.51 µM | 1.64 | 3.04 µM and 4.63 µM | 2.1 | 4.1 µM and 6.03 µM | 1.71 | 3.55 µM and 12.8 µM
C[C@@H]1C/C=C\C(=O)O[C@H](/C=C/C#C/C=C/C(C)(C)[C@@H](O)c2cccc(O)c2Br)[C@@H](C)/C=C/[C@H](C)C[C@H](OC(N)=O)C1 | 0.0435 | 21.4 µM | 0.0663 | 19.4 | 0.034 | 11.9 µM | 0.0228 | 0.0836 µM | 0.0167 | 0.0447 µM | 0.0139 | 2.12 | 0.0234 | 11.2 µM | 0.0417 | 14.7 µM | 0.0179 | 0.0354 µM | 0.0322 | 4.08 µM
O=C(Cc1ccc(/C=C/C(=O)c2ncc[nH]2)cc1)Nc1ccc(C(F)(F)F)cc1 | 5.38 | 11.8 µM | 2.13 | 6.3 | 1.04 | 4.79 µM | 4.89 | 11.1 µM | 0.469 | 1.02 µM | 2.79 | 8.55 | 3.6 | 10.7 µM | 4.87 | 12.4 µM | 5.55 | 10.2 µM | 7.2 | 16.1 µM
COc1ccc2[nH]c(-c3ccccc3)cc2c1 | > 100 | > 100 µM | > 100 | > 100 | > 100 | > 100 µM | 70 | > 100 µM | > 100 | > 100 µM | 61.8 | > 100 | > 100 | > 100 µM | 73.9 | > 100 µM | 86.6 | > 100 µM | > 100 | > 100 µM
CCCCCCCCCCCCCCCCS(=O)(=O)c1ccc(NN)cc1 | – | > 10 µM | – | > 10 | – | > 10 µM | – | > 10 µM | – | > 10 µM | – | > 10 | – | > 10 µM | – | > 10 µM | – | > 10 µM | – | > 10 µM
C=CC(=O)Nc1cccc(Nc2nc(Nc3ccc(OCCOC(F)F)cc3)ncc2F)c1 | 4.17 | 17.5 µM | 1.96 | > 100 | 1.97 | > 100 µM | 2.28 | 6.75 µM | 1.37 | 4.52 µM | 5.02 | 51.1 | 2.74 | 35.6 µM | 1.88 | 7.44 µM | 3.74 | 15.1 µM | 5.56 | 47.5 µM
COc1cc2cc(Oc3ccc(NC(=O)c4cccc5c4OCCO5)cc3)c(C)nc2cc1OC | 4.95 | > 100 µM | 25.7 | > 100 | 7.87 | > 100 µM | 3.93 | 30.6 µM | 9.28 | > 100 µM | 6.06 | > 100 | 8.36 | > 100 µM | 4.28 | 45.1 µM | 2.92 | > 100 µM | 4.79 | 63.5 µM
Fc1cc(-c2nnc3n2N=C(c2ccc(Cl)cc2Cl)CS3)c(Cl)cc1Cl | 32.9 | > 100 µM | 49.5 | > 100 | 38.3 | > 100 µM | 54.2 | > 100 µM | 34.3 | > 100 µM | 33.7 | > 100 | 37.3 | > 100 µM | 50.8 | > 100 µM | 26.1 | 65.1 µM | 86 | > 100 µM
COc1cc2nnn3c4ncccc4c(N=O)c3c2cc1OC | 8.21 | 31.2 µM | 3.02 | 12.5 | 2.2 | 21.1 µM | 0.0657 | – | 1.16 | > 100 µM | 4.09 | > 53.9 | 3.64 | 22.8 µM | 3.04 | 28 µM | 14.6 | 34 µM | 8.56 | > 100 µM
CC(C)(CO)N=Cc1ccccc1[O-].CC(C)(CO)N=Cc1ccccc1[O-].[Co+2] | 55.9 | > 100 µM | 42.1 | > 100 | 69.7 | > 100 µM | 12.9 | 95.7 µM | 40.5 | > 63.1 µM | > 74.9 | > 100 | > 100 | > 100 µM | 30.4 | 90.5 µM | 42.5 | > 100 µM | 30.1 | > 100 µM
O=C(O)C1C(C(=O)O)C2(Cl)C(Cl)=C(Cl)C1(Cl)C2(Cl)Cl.[Cd] (stereo not given) | 20.5 | 38.6 µM | 17.8 | 34.5 | 21.4 | 46.6 µM | 19.2 | 34.8 µM | 16.8 | 33.5 µM | 20.9 | 42.4 | 3.71 | 18 µM | 0.412 | 1.78 µM | 1.37 | 5.63 µM | 15.5 | 30.7 µM
NC(=O)c1cc(I)ccc1NC(=O)COc1ccccc1 | 0.323 | 1.97 µM | 0.457 | 32.2 | 0.33 | > 100 µM | 2.98 | 21.4 µM | 1.01 | > 100 µM | 1.32 | 26.6 | 0.433 | > 100 µM | 0.508 | 12.9 µM | 0.533 | > 100 µM | 41.7 | > 100 µM
CCc1cccc(CC)c1/C=C/c1cncc(C(=O)NC)c1 | 13.8 | > 25 µM | 16.5 | > 25 | 9.71 | > 25 µM | 1.27 | > 25 µM | 11.5 | > 25 µM | 13.2 | > 25 | 9.97 | > 25 µM | 8.82 | > 23.9 µM | 5.71 | > 16.2 µM | > 13.5 | > 25 µM
COc1ccc(C2ONC3=NCCN32)cc1 (stereo not given) | 45.9 | > 100 µM | 70.3 | > 100 | 29.2 | > 100 µM | 40.8 | > 100 µM | 14.4 | 47.1 µM | > 100 | > 100 | 50.8 | > 100 µM | > 100 | > 100 µM | 53.3 | > 100 µM | > 100 | > 100 µM
Nc1ncnc2c1c(-c1ccc(Oc3ccccc3)cc1)nn2C[C@@H]1SSC[C@@H]1O | 1.58 | 4.7 µM | 1.36 | 4.02 | 0.57 | 5.98 µM | 1.62 | 6.04 µM | 0.169 | 1.11 µM | 1.14 | 4.13 | 0.0286 | 0.0807 µM | 2.15 | 6.98 µM | 0.25 | 0.684 µM | 0.374 | 11.9 µM
